Patent US20100173935A1, “Muscarinic Receptor Agonists that are Effective in the Treatment of Pain, Alzheimer's Disease and Schizophrenia” (AstraZeneca AB, priority 2006, published 2010)
One block for each molecule: values may come before it.

Target: T1, hM1 (human Muscarinic receptor subtype 1) (Homo sapiens, UniProt P11229)
T1 construct: expressed in transfected cells; host or cells: CHO cells (ATCC)
T1 sequence (P11229 1-460): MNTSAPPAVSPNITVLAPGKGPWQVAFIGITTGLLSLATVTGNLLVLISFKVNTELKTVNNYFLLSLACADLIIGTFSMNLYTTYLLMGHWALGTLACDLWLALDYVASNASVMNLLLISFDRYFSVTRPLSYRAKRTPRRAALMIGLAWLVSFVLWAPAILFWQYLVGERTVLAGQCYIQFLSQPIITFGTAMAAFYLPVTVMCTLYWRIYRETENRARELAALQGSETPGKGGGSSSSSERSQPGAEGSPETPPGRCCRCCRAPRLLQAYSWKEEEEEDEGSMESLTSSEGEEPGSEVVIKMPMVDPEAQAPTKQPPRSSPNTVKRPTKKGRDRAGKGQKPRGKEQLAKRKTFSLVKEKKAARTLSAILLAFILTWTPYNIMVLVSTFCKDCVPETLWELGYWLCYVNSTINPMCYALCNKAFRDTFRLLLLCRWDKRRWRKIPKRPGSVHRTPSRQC
Assay: Human M1 calcium mobilization FLIPR assay
Assay type: cell-based
Conditions: CHO cells expressing hM1, Ca2+ release
Procedure: The compound activity in the present invention (EC50 or IC50) was measured using a 384 plate-based imaging assay that monitors drug induced intracellular Ca^2+ release in whole cells. Activation of hM1 (human Muscarinic receptor subtype 1, gene bank access NM_000738), rM1 (rat Muscarinic receptor subtype 1, gene bank access NM_080773), hM3 (human Muscarinic receptor subtype 3, gene bank access NM_000740NM_000740) and hM5 (human Muscarinic receptor subtype 5, gene bank access NM_0121258), receptors expressed in CHO cells (chinese hamster ovary cells, ATCC) was quantified in a Molecular Devices FLIPR II™ instrument as an increase in fluorescent signal. Inhibition of hM3 and hM5 by compounds was determined by the decrease in fluorescent signal in response to 20 nM carbachol activation.
CHO cells were plated in 384-black polylysine coated plate (Costar) at 8000 cells/well/50 μl for 24 hours or 4000 cells/well for 48 hours in a humidified incubator (5% CO2 and 37° C.) in DMEM/F12 medium without selection agent. Prior to the experiment the cell culture medium was removed from the plates by inversion. A loading solution of 30 μl of Hank's balanced salt solution, 10 mM Hepes and 2.5 mM Probenicid at Ph 7.4 (Cat no. 311-520-VL, Wisent) with 2 μM calcium indicator dye (FLUO-3AM, Molecular Probes F14202) was added to each well. Plates were incubated at 37° C. for 60 minutes prior to start the experiment. The incubation was terminated by washing the cells four times in assay buffer, leaving a residual 25 μl buffer per well. Cell plates were then transferred to the FLIPR, ready for compound additions.
The day of experiment, carbachol and compounds were diluted in three-fold concentration range (10 points serial dilution) for addition by FLIPR instrument. For all calcium assays, a baseline reading was taken for 30 seconds followed by the addition of 12.5 μl (25 μl for hM1 and rM1) of compounds, resulting in a total well volume of 37.5 μl (50 μl for hM1 and rM1). Data were collected every 1.6 seconds for 300 seconds. For hM3 and hM5 an additional 12.5 μl of carbachol (20 nM final) was added at 300 seconds. After this addition of carbachol (producing a final volume of 50 μl), the FLIPR continued to collect data every 2 seconds for 240 seconds. The fluorescence emission was read using filter 1 (emission 520-545 nm) by the FLIPR on board CCD camera.
Calcium mobilization output data were calculated as the maximal relative fluorescence unit (RFU) minus the minal value for both compound and agonist reading frame (except for hM1 and rM1 using only the maximal RFU). Data were analyzed using sigmoidal fits of a non-linear curve-fitting program (XLfit version 5.0.6 from ID Business Solutions Limited, Guildford, UK). All EC50 and IC50 values are reported as arithmetic means±standard error of mean of ‘n’ independent experiments.

Compound: CCOC(=O)N1CC[C@H](N2CCC(n3c(=O)[nH]c4ccc(C)cc43)CC2)C1 (single isomer, unassigned) [Example 37]
EC50: 0.6 nM

Compound: CCOC(=O)N1CCC(N2CCC(n3c(=O)[nH]c4ccc(C)cc43)CC2)C1 (single isomer, unassigned) [Example 38]
EC50: 7.9 nM

Compound: CCOC(=O)N1CC[C@H](N2CCC(n3c(=O)[nH]c4ccc(OC)cc43)CC2)C1 (single isomer, unassigned) [Example 39]
EC50: 21.9 nM

Compound: CCOC(=O)N1CCC(N2CCC(n3c(=O)n(C)c4ccccc43)CC2)C1 (centres unmarked) [Example 10, Ethyl 3-[4-(3-methyl-2-oxo-2,3-dihydro-1H-benzimidazol-1-yl)piperidin-1-yl]pyrrolidine-1-carboxylate]
EC50: 286 nM

Compound: CCOC(=O)N1CCC(N2CCC(n3nnc4ccccc43)CC2)C1 (centres unmarked) [Example 11, ethyl 3-[4-(1H-1,2,3-benzotriazol-1-yl)piperidin-1-yl]pyrrolidine-1-carboxylate]
EC50: 612 nM

EC50: 2690 nM
Compound: CCOC(=O)N1CCC(N2CCC(=C3C(=O)Nc4ccccc43)CC2)C1 (centres unmarked) [Example 12, Ethyl 3-[4-(2-oxo-1,2-dihydro-3H-indol-3-ylidene)piperidin-1-yl]pyrrolidine-1-carboxylate]

Compound: Cn1cccc1C(=O)N1CC[C@H](N2CCC(n3c(=O)[nH]c4ccccc43)CC2)C1 [Example 21, 1-(1-{(3S)-1-[(1-methyl-1H-pyrrol-2-yl)carbonyl]pyrrolidin-3-yl}piperidin-4-yl)-1,3-dihydro-2H-benzimidazol-2-one]
EC50: 1180 nM

Compound: CCOC(=O)N1CCC(N2C3CCC2CC(n2c(=O)[nH]c4ccccc42)C3)C1 (centres unmarked) [Example 30, Ethyl 3-[3-(2-oxo-2,3-dihydro-1H-benzimidazol-1-yl)-8-azabicyclo[3.2.1]oct-8-yl]pyrrolidine-1-carboxylate]
EC50: 518 nM
